In ChEMBL document CHEMBL4177521, “Therapeutic Potential of Fatty Acid Amide Hydrolase, Monoacylglycerol Lipase, and N-Acylethanolamine Acid Amidase Inhibitors” (J Med Chem, 2017):
Each block holds one molecule with its values, some of them ahead of it.

Assays:
[1] = target: T1, Fatty-acid amide hydrolase 1 (Rattus norvegicus, UniProt P97612); experiment: Inhibition of rat FAAH assessed as reduction in [14C]oleamide conversion to oleic acid by Lineweaver-Burk plot analysis
T1 sequence (P97612 whole entry): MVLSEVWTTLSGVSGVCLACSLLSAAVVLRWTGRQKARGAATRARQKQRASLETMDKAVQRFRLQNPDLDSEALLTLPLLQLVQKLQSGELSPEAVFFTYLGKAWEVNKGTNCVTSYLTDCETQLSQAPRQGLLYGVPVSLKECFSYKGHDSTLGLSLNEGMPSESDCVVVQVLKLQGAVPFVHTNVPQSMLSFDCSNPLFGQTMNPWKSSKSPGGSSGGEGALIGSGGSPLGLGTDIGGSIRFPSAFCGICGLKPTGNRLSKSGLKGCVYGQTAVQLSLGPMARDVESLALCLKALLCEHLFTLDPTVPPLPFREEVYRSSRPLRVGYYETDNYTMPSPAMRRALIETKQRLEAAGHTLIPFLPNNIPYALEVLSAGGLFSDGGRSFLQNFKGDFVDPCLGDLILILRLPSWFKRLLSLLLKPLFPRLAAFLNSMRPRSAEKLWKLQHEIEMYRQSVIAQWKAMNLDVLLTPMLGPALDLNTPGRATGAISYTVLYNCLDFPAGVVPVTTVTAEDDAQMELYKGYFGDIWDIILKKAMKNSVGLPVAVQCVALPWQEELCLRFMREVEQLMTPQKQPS

Monoglyceride lipase [2] = target: T2, Monoglyceride lipase (Rattus norvegicus, UniProt Q8R431); experiment: Inhibition of rat MAGL
T2 sequence (Q8R431 whole entry): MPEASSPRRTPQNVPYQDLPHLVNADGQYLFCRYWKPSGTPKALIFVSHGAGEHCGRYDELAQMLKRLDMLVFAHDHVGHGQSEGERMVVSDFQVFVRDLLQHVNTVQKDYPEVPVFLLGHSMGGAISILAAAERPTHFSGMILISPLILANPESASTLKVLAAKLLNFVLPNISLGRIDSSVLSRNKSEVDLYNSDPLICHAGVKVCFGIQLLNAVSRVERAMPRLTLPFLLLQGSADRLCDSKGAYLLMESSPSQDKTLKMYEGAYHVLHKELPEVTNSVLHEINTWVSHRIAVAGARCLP

Monoglyceride lipase [3] = target: T3, Monoglyceride lipase (Mus musculus, UniProt O35678); experiment: Inhibition of mouse MAGL
T3 sequence (O35678 whole entry): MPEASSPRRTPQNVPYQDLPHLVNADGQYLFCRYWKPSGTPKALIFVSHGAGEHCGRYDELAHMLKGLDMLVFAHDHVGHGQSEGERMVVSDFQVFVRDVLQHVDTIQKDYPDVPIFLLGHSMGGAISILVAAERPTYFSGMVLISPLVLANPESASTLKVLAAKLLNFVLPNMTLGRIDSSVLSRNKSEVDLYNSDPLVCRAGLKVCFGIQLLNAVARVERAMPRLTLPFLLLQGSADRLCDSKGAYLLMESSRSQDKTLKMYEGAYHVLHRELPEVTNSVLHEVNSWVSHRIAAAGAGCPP

Monoglyceride lipase [4] = target: T2, Monoglyceride lipase; experiment: Inhibition of rat cerebellar membranes MAGL-like activity preincubated for 30 mins followed by 2-AG substrate addition after 90 mins by HPLC analysis; set-up: species or system Cerebellum, Membrane
Monoglyceride lipase [5] = target: T2, Monoglyceride lipase; experiment: Inhibition of recombinant rat N-terminal histidine tagged MAGL expressed in Escherichia coli Rosetta 2 (DE3) pLysS cells preincubated for 10 mins followed by 2-OG substrate addition after 10 mins by LC/MS analysis
Monoglyceride lipase [6] = target: T2, Monoglyceride lipase; experiment: Inhibition of recombinant rat MAGL expressed in Escherichia coli using 2-AG as substrate
Monoglyceride lipase [7] = target: T4, Monoglyceride lipase (Homo sapiens, UniProt Q99685); experiment: Inhibition of recombinant human N-terminal His6-tagged and C-terminal Strep-tagged MAGL expressed in Escherichia coli Rosetta using [3H]2-OG as substrate after 10 mins by liquid scintillation counting method
T4 sequence (Q99685 whole entry): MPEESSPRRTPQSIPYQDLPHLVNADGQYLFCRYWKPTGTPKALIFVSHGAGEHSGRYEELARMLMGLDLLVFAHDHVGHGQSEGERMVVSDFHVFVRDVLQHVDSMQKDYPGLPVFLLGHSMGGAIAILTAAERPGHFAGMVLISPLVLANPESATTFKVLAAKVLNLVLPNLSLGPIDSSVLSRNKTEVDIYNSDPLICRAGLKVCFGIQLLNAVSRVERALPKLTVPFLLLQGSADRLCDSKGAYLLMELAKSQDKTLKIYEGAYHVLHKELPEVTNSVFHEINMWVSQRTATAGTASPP

[8] = target: T1, Fatty-acid amide hydrolase 1; experiment: Inhibition of rat FAAH
[9] = target: T1, Fatty-acid amide hydrolase 1; experiment: Inhibition of rat brain microsomal FAAH using N-(2-hydroxyethyl)-4-pyren-1-yl-butanamide as substrate after 60 mins by RP HPLC based fluorescence assay
[10] = Half life in mouse plasma; type: ADME, cell-free
[11] = target: T5, Fatty-acid amide hydrolase 2 (Homo sapiens, UniProt Q6GMR7); experiment: Inhibition of recombinant human N-terminal FLAG-tagged/C-terminal Myc-His6 tagged FAAH2 (32 to 579 residues) expressed in COS7 cell membranes; type: cell-based
T5 sequence (Q6GMR7 whole entry): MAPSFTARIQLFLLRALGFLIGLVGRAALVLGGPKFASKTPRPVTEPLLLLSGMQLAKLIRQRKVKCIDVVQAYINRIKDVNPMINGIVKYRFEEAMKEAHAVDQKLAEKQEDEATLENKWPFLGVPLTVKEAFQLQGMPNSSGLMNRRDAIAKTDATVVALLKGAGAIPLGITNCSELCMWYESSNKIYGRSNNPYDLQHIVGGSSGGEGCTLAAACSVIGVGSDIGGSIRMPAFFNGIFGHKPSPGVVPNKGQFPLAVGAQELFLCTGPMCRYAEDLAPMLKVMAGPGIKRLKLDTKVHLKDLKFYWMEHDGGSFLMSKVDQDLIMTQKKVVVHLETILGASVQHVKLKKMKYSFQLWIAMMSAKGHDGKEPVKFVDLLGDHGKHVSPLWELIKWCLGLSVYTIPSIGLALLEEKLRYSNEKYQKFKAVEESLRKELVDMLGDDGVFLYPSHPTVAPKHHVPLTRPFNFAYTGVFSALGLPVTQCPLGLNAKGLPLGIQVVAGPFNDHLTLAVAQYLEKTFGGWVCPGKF

Homo sapiens [12] = species on record: Homo sapiens; experiment: Selectivity index, ratio of IC50 for ABHD6 (unknown origin) to IC50 for human MAGL
Homo sapiens [13] = species on record: Homo sapiens; experiment: Selectivity index, ratio of IC50 for FAAH (unknown origin) to IC50 for human MAGL
[14] = Half life in rat plasma at 3 uM by LC/MS analysis; type: ADME, cell-free
[15] = target: T6, N-acylethanolamine-hydrolyzing acid amidase (Homo sapiens, UniProt Q02083); experiment: Inhibition of recombinant human NAAA expressed in HEK293 cells preincubated for 10 mins followed by PAMCA substrate addition after 30 mins by fluorescence assay; type: cell-based
T6 sequence (Q02083 whole entry): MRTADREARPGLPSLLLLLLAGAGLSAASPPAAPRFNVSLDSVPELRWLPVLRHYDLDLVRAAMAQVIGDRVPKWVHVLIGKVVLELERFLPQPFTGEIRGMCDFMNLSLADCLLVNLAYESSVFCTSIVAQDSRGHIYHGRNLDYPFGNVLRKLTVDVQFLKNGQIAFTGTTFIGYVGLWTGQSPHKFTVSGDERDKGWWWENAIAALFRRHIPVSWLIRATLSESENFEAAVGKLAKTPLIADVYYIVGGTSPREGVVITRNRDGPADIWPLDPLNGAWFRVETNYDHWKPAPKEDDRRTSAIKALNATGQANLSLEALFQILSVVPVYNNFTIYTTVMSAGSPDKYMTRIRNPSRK

Monoglyceride lipase [16] = target: T3, Monoglyceride lipase; experiment: Inhibition of mouse MAGL preincubated for 30 mins followed by FP-Rh addition after 30 mins by gel-based ABPP assay
Monoglyceride lipase [17] = target: T4, Monoglyceride lipase; experiment: Inhibition of recombinant human full length MAGL expressed in HEK293 cells preincubated for 30 mins followed by FP-Rh addition after 30 mins by gel-based ABPP assay; type: cell-based
Monoglyceride lipase [18] = target: T2, Monoglyceride lipase; experiment: Inhibition of rat MAGL preincubated for 30 mins followed by FP-Rh addition after 30 mins by gel-based ABPP assay
[19] = target: T1, Fatty-acid amide hydrolase 1; experiment: Inhibition of Sprague-Dawley rat brain FAAH preincubated for 10 mins followed by [3H]-anandamide substrate addition after 30 mins by liquid scintillation counting method

Compound: O=C(N1CCN(C(c2ccccc2)c2ccccc2)CC1)n1ccnc1
IC50 (Monoglyceride lipase [2]): 4800 nM
IC50 (Monoglyceride lipase [3]): 2600 nM

Compound: CC(C)=CCC[C@@H](C)[C@@H]1CCC[C@]2(C)C3=C(CC[C@@]12C)[C@@]1(C)CC[C@H](O)C(C)(C)[C@@H]1CC3
IC50 (Monoglyceride lipase [6]): 315 nM

Compound: CCN(CC)C(=S)SSC(=S)N(CC)CC
IC50 (Monoglyceride lipase [7]): 360 nM

Compound: COc1nn(-c2ccc(NC(=O)OCc3ccccc3)c(C)c2)c(=O)o1
IC50 [8]: 86 nM

Compound: c1ccc(SSc2ccccc2)cc1
IC50 (Monoglyceride lipase [7]): 1600 nM

Compound: O=C(N1CCC(C(c2ccc3c(c2)OCO3)c2ccc3c(c2)OCO3)CC1)n1cncn1
IC50 (Monoglyceride lipase [2]): 0.214 nM
IC50 (Monoglyceride lipase [3]): 0.275 nM
Ratio IC50 (Homo sapiens [12]): 60
Ratio IC50 (Homo sapiens [13]): 11200

Compound: O=C(OC(C(F)(F)F)C(F)(F)F)N1CCN(Cc2cccc(Oc3ccccc3)c2)CC1
IC50 (Monoglyceride lipase [16]): 7.6 nM
IC50 (Monoglyceride lipase [17]): 3.7 nM
IC50 (Monoglyceride lipase [18]): 14 nM

Compound: O=C(NC1CCCCC1)OCc1cn(-c2ccccc2)nn1
IC50 [19]: 381 nM

Compound: COC(=O)[C@]1(C)CC[C@]2(C)CC[C@]3(C)C4=CC=C5C(=CC(=O)C(O)=C5C)[C@]4(C)CC[C@@]3(C)C2C1 (stereo partly specified)
IC50 (Monoglyceride lipase [6]): 93 nM

Compound: CN(Cc1cccc(-c2ccncc2)c1)C(=O)OC(C(F)(F)F)C(F)(F)F
IC50 (Monoglyceride lipase [18]): 385 nM

Compound: O=C(N1CCC(=C(c2ccc3c(c2)OCO3)c2ccc3c(c2)OCO3)CC1)n1cncn1
IC50 (Monoglyceride lipase [2]): 0.269 nM
IC50 (Monoglyceride lipase [3]): 0.191 nM

Next, values leading:

Ki [1]: 0.75 nM
Compound: CCCCCCCCCC(=O)c1nc2ncccc2o1

IC50 (Monoglyceride lipase [4]): 53000 nM
Compound: CCN1C(=O)C=CC1=O [N-ETHYLMALEIMIDE]

IC50 (Monoglyceride lipase [5]): 43 nM
Compound: CCCCCCCC/C=C\CCCCCCCCn1sccc1=O

IC50 [9]: 81 nM
Compound: O=C(NCCCCCCCn1nnc(-c2ccccc2)n1)Oc1ccccc1

half-life [10]: < 1 min
Compound: O=C(CCc1ccccc1)N[C@H]1COC1=O

IC50 [11]: 13.4 nM
Compound: O=C(CCCCCCc1ccccc1)c1ncc(-c2ccccn2)o1

half-life at 3 µM [14]: > 5 min
IC50 [15]: 234 nM
Compound: CC(C)(C)[C@@H]1OC(=O)[C@H]1NC(=O)OCCCCCc1ccccc1

Ki [1]: 0.3 nM
Compound: O=C(CCCCc1ccccc1)c1nc2ncccc2o1

IC50 [19]: 26.2 nM
Compound: O=C(NC1CCCCC1)OCc1cn(Cc2ccccc2)nn1

IC50 [9]: 11 nM
Compound: O=C(NCCCCCCn1nnc(-c2ccccc2)n1)Oc1cccnc1

IC50 ([15]; hek293): 240 nM
Compound: CCCCCCCCCC(=O)N[C@H]1CNC1=O

IC50 [9]: 110 nM
Compound: O=C(NCCCCCCCCn1nnc(-c2ccccc2)n1)Oc1ccccc1
